This note sets out measurements from ChEMBL document CHEMBL1134898, “Synthesis and biological evaluation of novel D-2'-azido-2',3'-dideoxyarabinofuranosyl-4'-thiopyrimidines and purines” (Bioorg Med Chem Lett, 2002).

The test system of test [1] is Human alphaherpesvirus 1. Description: Compound was tested for antiviral activity against HSV-1. In kind it is functional, organism-based.
Test [2] deals with MT4. Description: Cytotoxicity indicative of 50% survival concentration in HSV-1-uninfected MT-4 cells. In kind it is functional. The settings on record: Homo sapiens.
The test system of test [3] is MT4. Description: Cytotoxicity indicative of 50% survival concentration in HSV-2-uninfected MT-4 cells. In kind it is functional. The conditions noted are these: Homo sapiens.
Test [4] has as its system Human alphaherpesvirus 2. Description: Compound was tested for antiviral activity against HSV-2. In kind it is functional, organism-based.
Test [5] concerns MT4. Description: Cytotoxicity indicative of 50% survival concentration in virus-uninfected MT-4 cells. In kind it is functional. The conditions noted are these: Homo sapiens.
Test [6] has as its system MT4. Description: Compound was tested for antiviral activity indicative of 50% cytopathic concentration in virus (HIV-1) infected MT-4 cells. The settings on record: Homo sapiens. In kind it is functional, cell-based. For orientation: Protection from cytopathic effect is a common read-out in antiviral testing.
Test [7] has as its system MT4. Description: Cytotoxicity indicative of 50% survival concentration in virus -uninfected MT-4 cells. The settings on record: Homo sapiens. In kind it is functional.

Converted amounts (≈) assume the structure as drawn. Where only a bound is given, the exact number is not on record here.

For orientation: EC50 means the concentration that produces a half-maximal response. A low value points to greater potency. Broadly, the CC50 is the concentration that lowers cell viability or growth by half. A low value points to harm at low concentration. Regarding `Nc1nc2c(ncn2COCCO)c(=O)[nH]1` [ACYCLOVIR], the concentration for a half-maximal effect (EC50) in test [1] amounted to 0.13 µg/mL (≈ 0.577 µM); in test [4], 0.88 µg/mL (≈ 3.91 µM). Further, the half-maximal cytotoxic concentration (CC50) in test [2] was above 76.6 µg/mL; in test [3], above 11.4 µg/mL.

`CNc1ncnc2c1ncn2[C@@H]1SC(CO)C[C@@H]1N=[N+]=[N-]` (single isomer, unassigned) had a half-maximal cytotoxic concentration (CC50) in test [5] of 48.1 µg/mL (≈ 157 µM). For the same compound, the EC50 was above 48.1 µg/mL in test [6], above 100 µg/mL in test [1] and above 100 µg/mL in test [4].

With `[N-]=[N+]=N[C@H]1C[C@@H](CO)S[C@H]1n1cnc2c(N)ncnc21`, in test [5], half-maximal cytotoxicity (CC50) was put at 66.6 µg/mL (≈ 228 µM). The half-maximal effective concentration (EC50) was above 66.6 µg/mL in test [6], above 100 µg/mL in test [1] and above 100 µg/mL in test [4].

On to `CNc1ncnc2c1ncn2[C@H]1S[C@H](CO)C[C@@H]1N=[N+]=[N-]`, for which half-maximal cytotoxicity in test [5] (CC50) was put at 61.5 µg/mL (≈ 201 µM). In addition, the EC50 in test [6] was above 61.5 µg/mL; in test [1], above 100 µg/mL; in test [4], above 100 µg/mL.

Turning to `Cc1cn([C@H]2C[C@H](N=[N+]=[N-])[C@@H](CO)O2)c(=O)[nH]c1=O` [ZIDOVUDINE], in test [5], the CC50 worked out at 0.52 µg/mL (≈ 1.95 µM). Also, the concentration giving a half-maximal response (EC50) was 0.0005 µg/mL (≈ 0.00187 µM) in test [6], 0.52 µg/mL (≈ 1.95 µM) in test [1] and above 100 µg/mL in test [4].

With `[N-]=[N+]=N[C@H]1C[C@@H](CO)S[C@H]1n1ccc(N)nc1=O`, the 50% effective concentration (EC50) in test [6] was above 41.7 µg/mL; in test [1], above 100 µg/mL; in test [4], above 100 µg/mL. In test [7], this compound had a cytotoxic concentration (CC50) of 41.7 µg/mL (≈ 155 µM).

As for `[N-]=[N+]=N[C@H]1C[C@@H](CO)S[C@@H]1n1cnc2c(N)ncnc21`, the CC50 in test [5] is 17.3 µg/mL (≈ 59.2 µM). Further, the EC50 was above 17.3 µg/mL in test [6], above 100 µg/mL in test [1] and above 100 µg/mL in test [4].

For the compound `Cc1cn([C@H]2S[C@H](CO)C[C@@H]2N=[N+]=[N-])c(=O)[nH]c1=O`, in test [5], the midpoint of cytotoxicity, the CC50, lay at 63.5 µg/mL (≈ 224 µM). The figures for the concentration for a half-maximal effect (EC50) in test [6], in test [1] and in test [4] were above 63.5 µg/mL, above 100 µg/mL and above 100 µg/mL, respectively.

In test [5], `[N-]=[N+]=NC1C[C@@H](CO)S[C@@H]1n1ccc(N)nc1=O` (stereo not given in full) showed a half-maximal cytotoxic concentration (CC50) above 100 µg/mL. Besides, the EC50 in test [6], in test [1] and in test [4] was above 100 µg/mL each time.

`Cc1cn([C@@H]2S[C@H](CO)C[C@@H]2N=[N+]=[N-])c(=O)[nH]c1=O`: in test [5], half-maximal cytotoxicity (CC50) was put at 56.1 µg/mL (≈ 198 µM). Moreover, the EC50 in test [6] is above 56.5 µg/mL; in test [1], above 100 µg/mL; in test [4], above 100 µg/mL.
